How the values were obtained:
[1] = Crystal; for vapor or sublimation pressure: Calculated from knudsen effusion weight loss; for Normal melting temperature: DTA
[2] = Molar enthalpy of transition or fusion; conditions: Crystal; DSC

c1ccc2c(c1)-c1cccc3c1c-2cc1ccccc13 [benz[e]acephenanthrylene]
[1]
Conditions	vapor or sublimation pressure [kPa]
364.1 K	4.7e-06
369.3 K	8.12e-06
374.2 K	1.46e-05
377.2 K	1.9e-05
379.2 K	2.41e-05
382.2 K	3.21e-05
384.2 K	3.95e-05
387.2 K	5.4e-05
389.1 K	6.22e-05
392.1 K	8.51e-05
394.2 K	0.000101
397.1 K	0.000131
399.1 K	0.000159
404.1 K	0.00023
409 K	0.000356
414.1 K	0.000533

Conditions	Molar enthalpy of transition or fusion [kcal/mol]	Normal melting temperature [°C]
[1]	–	168.00
[2]	4.37	–

c1cc2ccc3ccc4ccc5cccc6c(c1)c2c3c4c56 [benzo[ghi]perylene]
[1]
Conditions	vapor or sublimation pressure [kPa]
399.1 K	4.16e-06
404 K	7e-06
409 K	1.15e-05
414.4 K	1.79e-05
419 K	2.83e-05
424 K	4.36e-05
429 K	6.54e-05
434.1 K	0.000104
439 K	0.000138
441 K	0.000207
449.1 K	0.000303
454.1 K	0.000432

Conditions	Molar enthalpy of transition or fusion [kcal/mol]	Normal melting temperature [°C]
[1]	–	272.50
[2]	3.9	–

c1ccc2cc3c(cc2c1)-c1cccc2cccc-3c12 [benzo[k]fluoranthene]
[1]
Conditions	vapor or sublimation pressure [kPa]
384.2 K	1.63e-05
389.2 K	2.42e-05
394.1 K	3.62e-05
399.1 K	5.62e-05
404 K	8.86e-05
409 K	0.000136
411 K	0.000157
419 K	0.000383
424 K	0.000557

Conditions	Molar enthalpy of transition or fusion [kcal/mol]	Normal melting temperature [°C]
[1]	–	217.00
[2]	6.33	–

c1ccc2c(c1)ccc1cc3c(ccc4ccccc43)cc12 [dibenz[a,h]anthracene]
[1]
Conditions	vapor or sublimation pressure [kPa]
399.2 K	5.11e-06
404 K	5.53e-06
409.1 K	9.22e-06
414 K	1.39e-05
419.1 K	3.95e-05
424.2 K	5.45e-05
429.2 K	8.89e-05
434.2 K	0.000112
439.1 K	0.000174
444.1 K	0.00028
449.1 K	0.000369

Conditions	Molar enthalpy of transition or fusion [kcal/mol]	Normal melting temperature [°C]
[1]	–	269.50
[2]	5.86	–

c1ccc2c(c1)-c1ccc3ccc4cccc5cc-2c1c3c45 [indeno[1,2,3-cd]pyrene]
[1]
Conditions	vapor or sublimation pressure [kPa]
384.1 K	5.38e-06
389.1 K	7.96e-06
394.2 K	1.3e-05
399.2 K	2.19e-05
404.1 K	3.28e-05
409.1 K	5.33e-05
414.1 K	8.53e-05
419.1 K	0.000133
424.1 K	0.000201

Conditions	Molar enthalpy of transition or fusion [kcal/mol]	Normal melting temperature [°C]
[1]	–	162.00
[2]	5.47	–
